Measured values from ChEMBL document CHEMBL3822402, “Discovery of potent macrocyclic HCV NS5A inhibitors” (Bioorg Med Chem Lett, 2016).
One block for each compound: values may come before it.

What was measured:
Assay type in all cases: functional, organism-based, Hepacivirus hominis
[1] = tested on: Hepatitis C virus; assay: Antiviral activity against HCV genotype 1a by real time PCR analysis; conditions: subtype 1a
[2] = tested on: Hepatitis C virus; assay: Antiviral activity against HCV genotype 1b by real time PCR analysis
[3] = tested on: Hepatitis C virus; assay: Antiviral activity against HCV genotype 1a harboring NS5A Y93H mutant by real time PCR analysis; conditions: subtype 1a
[4] = tested on: Hepatitis C virus; assay: Antiviral activity against HCV genotype 2a by real time PCR analysis
[5] = tested on: Hepatitis C virus; assay: Antiviral activity against HCV genotype 3a by real time PCR analysis
[6] = tested on: Hepatitis C virus; assay: Antiviral activity against HCV genotype 1b in presence of 10% FBS by real time PCR analysis
[7] = tested on: Hepatitis C virus; assay: Antiviral activity against HCV genotype 1a in presence of 10% FBS by real time PCR analysis; conditions: subtype 1a

SMILES: COC(=O)N[C@H](C(=O)N1C[C@H](OC)C[C@H]1c1ncc(-c2ccc(-c3ccc4c(ccc5nc([C@@H]6[C@H]7CC[C@H](C7)N6C(=O)[C@@H](NC(=O)OC)C(C)C)[nH]c54)c3)cc2)[nH]1)C(C)C
- EC50 [1]: 0.05 nM
- EC50 [2]: 0.007 nM
- EC50 [3]: 43 nM
- EC50 [4]: 0.02 nM

SMILES: COC(=O)N[C@H](C(=O)N1CCC[C@H]1c1ncc(-c2ccc(-c3ccc4c(ccc5nc([C@@H]6CCCN6C(=O)[C@@H](NC(=O)OC)C(C)C)[nH]c54)c3)cc2O)[nH]1)C(C)C
- EC50 [1]: 0.08 nM
- EC50 [2]: 0.004 nM
- EC50 [3]: 201 nM
- EC50 [4]: 0.2 nM

- EC50 [1]: 0.02 nM
- EC50 [2]: 0.002 nM
- EC50 [4]: 0.09 nM
SMILES: COC(=O)N[C@H](C(=O)N1CCC[C@H]1c1ncc(-c2ccc(-c3ccc4c(ccc5nc([C@@H]6CCCN6C(=O)[C@@H](NC(=O)OC)C(C)C)[nH]c54)c3)cc2C)[nH]1)C(C)C

SMILES: COC(=O)N[C@H](C(=O)N1CCC[C@H]1c1nc2ccc3cc(-c4ccc(-c5c[nH]c([C@@H]6C[C@@H]7CN6C(=O)[C@H](C(C)C)NC(=O)OCCC/C=C/CO7)n5)cc4)ccc3c2[nH]1)C(C)C
- EC50 [1]: 0.01 nM
- EC50 [2]: 0.006 nM
- EC50 [3]: 43 nM
- EC50 [5]: 0.04 nM

SMILES: COC(=O)N[C@H](C(=O)N1C[C@H](N)C[C@H]1c1ncc(-c2ccc(-c3ccc4c(ccc5nc([C@@H]6CCCN6C(=O)[C@@H](NC(=O)OC)C(C)C)[nH]c54)c3)cc2)[nH]1)C(C)C
- EC50 [1]: 0.4 nM
- EC50 [2]: 0.03 nM
- EC50 [3]: 987 nM
- EC50 [4]: 2 nM

SMILES: COC(=O)N[C@H](C(=O)N1CCC[C@H]1c1ncc(-c2ccc(-c3ccc4c(c3)c(Cl)cc3nc([C@@H]5CCCN5C(=O)[C@@H](NC(=O)OC)C(C)C)[nH]c34)cc2)[nH]1)C(C)C
- EC50 [1]: 0.01 nM
- EC50 [2]: 0.003 nM
- EC50 [3]: 121 nM
- EC50 [4]: 0.004 nM

- EC50 [1]: 0.1 nM
- EC50 [2]: 0.002 nM
- EC50 [4]: 0.2 nM
SMILES: COC(=O)N[C@H](C(=O)N1CCC[C@H]1c1ncc(-c2ccc(-c3ccc4c(ccc5nc([C@@H]6CCCN6C(=O)[C@@H](NC(=O)OC)C(C)C)[nH]c54)c3)cc2C2CC2)[nH]1)C(C)C

SMILES: COC(=O)N[C@H](C(=O)N1CCC[C@H]1c1ncc(-c2ccc(-c3ccc4c(ccc5nc([C@@H]6[C@H]7CC[C@H](C7)N6C(=O)[C@@H](NC(=O)OC)C(C)C)[nH]c54)c3)cc2)[nH]1)C(C)C
- EC50 [1]: 0.02 nM
- EC50 [2]: 0.005 nM
- EC50 [3]: 93 nM
- EC50 [4]: 0.02 nM

SMILES: COC(=O)N[C@H](C(=O)N1CCC[C@H]1c1nc2ccc3cc(-c4ccc5c(c4)OCCCCCCOC(=O)N[C@@H](C(C)C)C(=O)N4CCC[C@H]4c4ncc-5[nH]4)ccc3c2[nH]1)C(C)C
- EC50 [1]: 1 nM
- EC50 [2]: 2 nM
- EC50 [3]: 857 nM

SMILES: COC(=O)N[C@H](C(=O)N1C[C@H](NC(C)=O)C[C@H]1c1ncc(-c2ccc(-c3ccc4c(ccc5nc([C@@H]6CCCN6C(=O)[C@@H](NC(=O)OC)C(C)C)[nH]c54)c3)cc2)[nH]1)C(C)C
- EC50 [1]: 0.07 nM
- EC50 [2]: 0.01 nM
- EC50 [3]: 225 nM
- EC50 [4]: 0.1 nM

SMILES: COCCO[C@@H]1C[C@@H](c2ncc(-c3ccc(-c4ccc5c(ccc6nc([C@@H]7[C@H]8CC[C@H](C8)N7C(=O)[C@@H](NC(=O)OC)C(C)C)[nH]c65)c4)cc3)[nH]2)N(C(=O)[C@@H](NC(=O)OC)C(C)C)C1
- EC50 [1]: > 1 nM
- EC50 [2]: 0.01 nM
- EC50 [3]: 404 nM
- EC50 [4]: 0.1 nM

- EC50 [1]: > 1 nM
- EC50 [2]: 4 nM
SMILES: CC(C)[C@H](NC(=O)OC1(C)CC1)C(=O)N1CCC[C@H]1c1ncc(-c2ccc(-c3ccc4c(c3)c(Cl)cc3nc([C@@H]5CCCN5C(=O)[C@@H](NC(=O)OC5(C)CC5)C(C)C)[nH]c34)cc2)[nH]1

SMILES: COC(=O)N[C@H](C(=O)N1CCC[C@H]1c1ncc(-c2ccc3oc(-c4ccc(-c5c[nH]c([C@@H]6C[C@@H]7CN6C(=O)[C@H](C(C)C)NC(=O)OC/C=C/CCCO7)n5)cc4)cc3c2)[nH]1)C(C)C
- EC50 [1]: 0.4 nM
- EC50 [2]: 0.04 nM
- EC50 [3]: 45 nM
- EC50 [5]: 2 nM

SMILES: COC(=O)N[C@@H]1C[C@@H](c2ncc(-c3ccc(-c4ccc5c(ccc6nc([C@@H]7CCCN7C(=O)[C@@H](NC(=O)OC)C(C)C)[nH]c65)c4)cc3)[nH]2)N(C(=O)[C@@H](NC(=O)OC)C(C)C)C1
- EC50 [1]: 0.2 nM
- EC50 [2]: 0.009 nM
- EC50 [3]: 80 nM
- EC50 [4]: 0.05 nM

- EC50 [6]: 0.2 nM
- EC50 [7]: 1.4 nM
SMILES: COC(=O)N[C@H](C(=O)N1CCC[C@H]1c1ncc(-c2ccc3oc(-c4ccc(-c5c[nH]c([C@@H]6C[C@@H]7CN6C(=O)[C@H](C(C)C)NC(=O)OCCCCCCO7)n5)cc4)cc3c2)[nH]1)C(C)C

SMILES: COC(=O)N[C@H](C(=O)N1C[C@H](O)C[C@H]1c1ncc(-c2ccc(-c3ccc4c(ccc5nc([C@@H]6[C@H]7CC[C@H](C7)N6C(=O)[C@@H](NC(=O)OC)C(C)C)[nH]c54)c3)cc2)[nH]1)C(C)C
- EC50 [1]: 0.2 nM
- EC50 [2]: 0.007 nM
- EC50 [3]: 21 nM
- EC50 [4]: 0.4 nM

SMILES: COC(=O)N[C@H](C(=O)N1CCC[C@H]1c1nc2ccc3cc(-c4ccc(-c5c[nH]c([C@@H]6C[C@@H]7CN6C(=O)[C@H](C(C)C)NC(=O)OCCCCCCO7)n5)cc4)ccc3c2[nH]1)C(C)C
- EC50 [1]: 0.006 nM
- EC50 [2]: 0.01 nM
- EC50 [3]: 188 nM
- EC50 [5]: 0.5 nM

SMILES: COC(=O)N[C@H](C(=O)N1CCC[C@H]1c1nc2ccc3cc(-c4ccc(-c5cnc([C@@H]6CC[C@H]7C(=O)N[C@@H](C(C)C)C(=O)N76)[nH]5)cc4)ccc3c2[nH]1)C(C)C
- EC50 [1]: 0.3 nM
- EC50 [2]: 0.007 nM
- EC50 [3]: 460 nM
- EC50 [5]: 12 nM

- EC50 [1]: > 1 nM
- EC50 [2]: 35 nM
SMILES: CC(C)OC(=O)N[C@H](C(=O)N1CCC[C@H]1c1ncc(-c2ccc(-c3ccc4c(c3)c(Cl)cc3nc([C@@H]5CCCN5C(=O)[C@@H](NC(=O)OC(C)C)C(C)C)[nH]c34)cc2)[nH]1)C(C)C

SMILES: COC(=O)N[C@H](C(=O)N1CCC[C@H]1c1ncc(-c2ccc(-c3ccc4c(ccc5nc([C@@H]6CCCN6C(=O)[C@@H](NC(=O)OC)C(C)C)[nH]c54)c3)cc2OCCN2CCOCC2)[nH]1)C(C)C
- EC50 [1]: > 1 nM
- EC50 [2]: 2 nM
- EC50 [3]: 1340 nM
- EC50 [4]: > 10 nM

SMILES: COCCOC(=O)N[C@H](C(=O)N1CCC[C@H]1c1ncc(-c2ccc(-c3ccc4c(c3)c(Cl)cc3nc([C@@H]5CCCN5C(=O)[C@@H](NC(=O)OCCOC)C(C)C)[nH]c34)cc2)[nH]1)C(C)C
- EC50 [1]: > 1 nM
- EC50 [2]: 15 nM
- EC50 [3]: > 1000 nM
- EC50 [4]: > 1 nM
